From patent US7799343B2, “Safer control of broadleaf weeds in turf with granular formulations of ALS inhibiting herbicides” (priority 2006, dated 2010)

What was measured:
Format in all cases: in vivo
[1] = tested on: buckhorn plantain, Plantago lanceolata L. (PLALA); assay: Postemergent weed control field study, Pennsylvania 2004, PLALA; details: g ai/Ha: penoxsulam 35, imazaquin 104, bispyribac-sodium 75, trifloxysulfuron-sodium 9.2, metsulfuron-methyl 10.4; for Percent Weed Control PLALA 29DAA: 29 Days After Application; for Percent Weed Control PLALA 56DAA: 56 Days After Application
From the text: (§1) The ALS inhibiting herbicides are useful in controlling broadleaf weeds and sedges in turfgrass. They are particularly effective against most important weeds in this application, viz., white clover, Trifolium repens L. (TRFRE); buckhorn plantain, Plantago lanceolata L. (PLALA); dandelion, Taraxacum officinale (TAROF); broadleaf plantain, Plantago major L. (PLAMA); ground ivy, Glechoma hederacea L. (GLEHE); common lespedeza, Lespedeza striata (LESST); pennywort (dollarweed), Hydrocotyle spp (HYDSS); Virginia buttonweed, Diodia virginiana L. (DIQVI) English daisy, Bellis perennis L. (BELPE); annual bluegrass, Poa annua (POANN); and yellow nutsedge, Cypres esculentus L. (CYPES).
(§2) Field studies were conducted in established turfgrass sites containing a natural population of target broadleaf weeds. Replicated trials, containing a minimum of three replications and having individual plots ranging in size from 25 to 50 ft. sq (2.3 to 4.6 square meters), were initiated in the late spring when turf and weeds were actively growing. […] Applications were made in the early morning when dew was present. Natural rainfall and supplemental irrigation were used to maintain healthy turf and active weed growth throughout the study period. Control of each weed species in the study site was made at approximately 2, 4 and 8 weeks after treatment. Control was determined visually by comparing treated and untreated weeds and scored on a 0 to 100 percent scale where 0 corresponds to no control and 100 corresponds to complete kill.

perennial ryegrass [2] = assay: Turf tolerance field study, perennial ryegrass, Indiana 2004; details: 21 Days After Treatment, g ai/Ha: penoxsulam 35, imazaquin 104, bispyribac-sodium 75, trifloxysulfuron-sodium 9.2, metsulfuron-methyl 10.4; for Color: 0 = brown to dead turf, 10 = lush green; for Injury: 0 = no visible injury, 10 = dead turf
Protocol: (§3) Turf tolerance studies were conducted in monoculture stands of perennial ryegrass and tall fescue. Replicated trials, containing a minimum of three replications and having individual plots ranging in size from 25 to 50 ft. sq (2.3 to 4.6 square meters), were initiated in the late spring when turf was actively growing. […] Natural rainfall and supplemental irrigation, fertilizer, fungicides and insecticides were used to maintain healthy turf throughout the study period. Turf tolerance evaluations were made weekly for 8 weeks after application. Evaluations compared treated and untreated plot areas and consisted of one or all of the following evaluations: 1) visual estimate of turf injury made on a 0 to 10 scale with 0 indicating no visible injury symptoms, 10 being dead turf and 3 or less being commercially acceptable; 2) visual estimate of turf color made on a 0 to 10 scale with 0 being brown to dead turf, 10 being a lush green turf of highest quality and 6.5 being commercially acceptable; 3) visual estimate of turf density made on a 0 to 100 scale with 0 being bare ground, 100 being a thick solid stand of highest quality and 90 percent density being commercially acceptable; 4) visual estimate of turf quality made on a 0 to 10 scale with 0 being brown to dead turf, 10 being a lush green turf of highest quality and 6.5 being commercially acceptable.

[3] = tested on: white clover, Trifolium repens L. (TRFRE); assay: Postemergent weed control field study, Pennsylvania 2004, TRFRE; details: g ai/Ha: penoxsulam 35, imazaquin 104, bispyribac-sodium 75, trifloxysulfuron-sodium 9.2, metsulfuron-methyl 10.4; for Percent Weed Control TRFRE 29DAA: 29 Days After Application; for Percent Weed Control TRFRE 56DAA: 56 Days After Application
From the text: as §1, §2

[4] = tested on: dandelion, Taraxacum officinale (TAROF); assay: Postemergent weed control field study, Pennsylvania 2004, TAROF; details: Liquid formulation, g ai/Ha: penoxsulam 35, imazaquin 104, bispyribac-sodium 75, trifloxysulfuron-sodium 9.2, metsulfuron-methyl 10.4; for Percent Weed Control TAROF 29DAA: 29 Days After Application; for Percent Weed Control TAROF 56DAA: 56 Days After Application
perennial ryegrass [5] = assay: Perennial ryegrass turf quality field study, Pennsylvania 2004; details: in vivo
Protocol: as §3

[6] = tested on: annual bluegrass, Poa annua (POANN); assay: Postemergent weed control field study, Pennsylvania 2004, POANN; details: g ai/Ha: penoxsulam 35, imazaquin 104, bispyribac-sodium 75, trifloxysulfuron-sodium 9.2, metsulfuron-methyl 10.4; for Percent Weed Control POANN 29DAA: 29 Days After Application; for Percent Weed Control POANN 56DAA: 56 Days After Application
From the text: as §1
(§4) Field studies were conducted in established turfgrass sites containing a natural population of target broadleaf weeds. Replicated trials, containing a minimum of three replications and having individual plots ranging in size from 25 to 50 ft. sq (2.3 to 4.6 square meters), were initiated in the late spring when turf and weeds were actively growing. Granule treatments were uniformly applied to individual plots using a common hand-shaker method. Applications were made in the early morning when dew was present. Natural rainfall and supplemental irrigation were used to maintain healthy turf and active weed growth throughout the study period. Control of each weed species in the study site was made at approximately 2, 4 and 8 weeks after treatment. Control was determined visually by comparing treated and untreated weeds and scored on a 0 to 100 percent scale where 0 corresponds to no control and 100 corresponds to complete kill.

[7] = tested on: dandelion, Taraxacum officinale (TAROF); assay: Postemergent weed control field study, Pennsylvania 2004, TAROF; details: Granule formulation, g ai/Ha: penoxsulam 35, imazaquin 104, bispyribac-sodium 75, trifloxysulfuron-sodium 9.2, metsulfuron-methyl 10.4; for Percent Weed Control TAROF 29DAA: 29 Days After Application; for Percent Weed Control TAROF 56DAA: 56 Days After Application
From the text: as §1, §4

tall fescue = assay: Turf tolerance field study, tall fescue, Indiana 2004; details: 14 Days After Treatment, g ai/Ha: penoxsulam 35, imazaquin 104, bispyribac-sodium 75, trifloxysulfuron-sodium 9.2, metsulfuron-methyl 10.4; for Color: 0 = brown to dead turf, 10 = lush green; for Injury: 0 = no visible injury, 10 = dead turf
Protocol: as §3

SMILES | Percent Weed Control PLALA 29DAA ([1]; Granule formulation) [%] | Percent Weed Control PLALA 56DAA ([1]; Granule formulation) [%] | Percent Weed Control PLALA 29DAA ([1]; Liquid formulation) [%] | Percent Weed Control PLALA 56DAA ([1]; Liquid formulation) [%] | Color (perennial ryegrass [2]; Granule formulation) | Injury (perennial ryegrass [2]; Granule formulation) | Color (perennial ryegrass [2]; Liquid formulation) | Injury (perennial ryegrass [2]; Liquid formulation) | Percent Weed Control TRFRE 29DAA ([3]; Granule formulation) [%] | Percent Weed Control TRFRE 56DAA ([3]; Granule formulation) [%] | Percent Weed Control TRFRE 29DAA ([3]; Liquid formulation) [%] | Percent Weed Control TRFRE 56DAA ([3]; Liquid formulation) [%] | Percent Weed Control TAROF 29DAA [4] [%] | Percent Weed Control TAROF 56DAA [4] [%] | Turf Quality 36 DAA (perennial ryegrass [5]) | Percent Weed Control POANN 29DAA ([6]; Granule formulation) [%] | Percent Weed Control POANN 56DAA ([6]; Granule formulation) [%] | Percent Weed Control POANN 29DAA ([6]; Liquid formulation) [%] | Percent Weed Control POANN 56DAA ([6]; Liquid formulation) [%] | Percent Weed Control TAROF 29DAA [7] [%] | also measured
COC(=O)c1ccccc1S(=O)(=O)NC(=O)Nc1nc(C)nc(OC)n1 [Metsulfuron-methyl, metsulfuron-methyl] | 58.3 | 85.0 | 97.7 | 78.9 | 6.5 0-10 Scale | 4.5 0-10 Scale | 6.0 0-10 Scale | 6.0 0-10 Scale | 93.9 | 93.9 | 95.8 | 100.0 | 99.1 | 97.4 | 8.3 0 to 10 scale | 32.2 | 31.1 | 39.2 | 17.5 | 87.2 | Percent Weed Control TAROF 56DAA [7]: 67.2%; Color (tall fescue; Granule formulation): 8.8 0-10 Scale; Injury (tall fescue; Granule formulation): 0.8 0-10 Scale; Color (tall fescue; Liquid formulation): 6.8 0-10 Scale; Injury (tall fescue; Liquid formulation): 4.3 0-10 Scale
COc1cnc(OC)n2nc(NS(=O)(=O)c3c(OCC(F)F)cccc3C(F)(F)F)nc12 [Penoxsulam, penoxsulam] | 73.3 | 43.3 | 41.7 | 70.6 | 8.3 0-10 Scale | 1.5 0-10 Scale | 6.5 0-10 Scale | 4.3 0-10 Scale | 98.3 | 83.9 | 100.0 | 98.7 | 44.4 | 11.1 | 10.0 0 to 10 scale | 0.0 | 13.7 | 4.4 | 31.1 | 57.8 | Percent Weed Control TAROF 56DAA [7]: 34.4%; Color (tall fescue; Granule formulation): 9.0 0-10 Scale; Injury (tall fescue; Granule formulation): 0.3 0-10 Scale; Color (tall fescue; Liquid formulation): 7.8 0-10 Scale; Injury (tall fescue; Liquid formulation): 3.0 0-10 Scale
